Reference: US8536164B2, “Fused pyridine compounds as casein kinase inhibitors” (Pfizer Inc., priority 2010, dated 2013)

Experiments:
CKIδ wild type = CKIδ wild type (Homo sapiens, UniProt P48730); assay: CK1δ kinase assay (Kinase-Glo); assay type: biochemical; conditions: 10 μM ATP, 2 nM CKIδ, 85 min at 25° C.; read-out: CK1 δ IC50
Procedure: (§1) The CK1δ kinase assay was performed in a 40 μl final volume in buffer containing 50 mM Tris, pH 7.5, 10 mM MgCl2, 1 mM dithiothreitol, 100 μg/mL BSA with 10 μM ATP, 2 nM CKIδ wild type, and 42 μM peptide substrate PLSRTLp[…] (Flotow et al., 1990) in the presence of 1 μl of CKIδ inhibitor or 4% DMSO. The reaction was incubated for 85 min at 25° C.; detection was carried out as described for the Kinase-Glo Assay (Promega). Luminescent output was measured on the Perkin Elmer Envision plate reader (PerkinElmer, Waltham, Mass.).

[1] = biological target: T1, human CK1δ (Cos 7 cells cotransfected with mouse Per3-GFP) (Homo sapiens, UniProt P48730); assay: CK1 WCA HCS nuclear translocation assay (CK1δ); assay type: cell-based; conditions: inhibition of mPer3-GFP translocation to the nucleus, overnight exposure, read-out: CK1 δ WCA EC50
T1 construct: His tag of the vector pcDNA4/hisA (only the vector name is printed); expressed in transfected cells; host or cells: Cos 7 cells
Procedure: CK1 WCA HCS Nuclear Translocation Assay.
Cos 7 cells were maintained at 37° C. in 5% CO2 in Dulbecco's Modified Eagle Medium (Gibco 11995) supplemented with 10% fetal bovine serum. Log-phase cells were dislodged with 5 min treatment of TrypLE Express (Gibco 12605) and viable cell count was determined with Cedex cell counter. Cells were diluted in DMEM medium to a density of 1.5e5 viable cells/mL in ⅔ of the final volume of final transfected cell mix. Cells were cotransfected with two plasmid DNAs, mouse Per3-GFP (green fluorescent protein) in pd2EGFP-N1 vector and human CKI in pcDNA4/hisA vector (for CK1Epsilon at a ratio of 1:5 respectively; for CK1δ at a ratio of 1:11 respectively), using Lipofectamine 2000 reagent (Invitrogen) according to the manufacturer's recommendations. The transfection mix contained approximately 0.83 μg/mL of DNA and 6 μL/mL of Lipofectamine 2000, in a total of ⅓ of the final transfection volume in Opti-MEM I medium (Invitrogen). After 20 min at rt, the cell mix was combined with the DNA transfection mix, per manufacturer instructions. 50 μL of the transfected cell suspension was dispensed per well by multidrop dispenser into Greiner 384-well Cellcoat (PDL) plates (Greiner #781946).
Compounds were solubilized in 100% DMSO, diluted with Opti-MEM I to a 4× concentration before addition to plated cells. After overnight exposure at 37° C. in a CO2 incubator, cells were fixed by the addition of 12% paraformaldehyde (Electron Microscopy Sciences, Hatfield, Pa.) in phosphate-buffered saline (PBS) with 20% sucrose to a final concentration of 4%, and then the cells were incubated for 30 min at rt. Fixative was removed, and cells were washed with PBS and then stained with 0.4 μg/ml Hoechst dye (Invitrogen) in blocking buffer containing 4% goat serum (Vector Labs s-1000) and 0.1% TritonX (Sigma T8787) for 1 h. Cells were washed again with PBS and stored at 4° C. in PBS or scanned immediately with the Cellomics ArrayScan VTI. CKIδ dependent nuclear localization of the GFP-tagged mPer3 protein was quantitated using the Cellomics ArrayScan VTI system utilizing the Cytoplasm to Nucleus translocation bioapplication to calculate the Nuclear-Cytoplasmic Intensity difference. Inhibitors of CK1 δ/ε were tested across a dose response curve to evaluate their ability to inhibit mPer3-GFP translocation to the nucleus. Cells with a total intensity of mPER3:GFP expression equal to or greater than 20,000 are included in analysis.

CKI ε wild type = CKI ε wild type (Homo sapiens, UniProt P49674); assay: CK1ε kinase assay (Kinase-Glo); assay type: biochemical; conditions: 10 μM ATP, 2.5 nM CKI ε, 70 min at 25° C.; read-out: CK1 ε:IC50
Procedure: as §1, with “The CK1ε” for “The CK1δ”, “a 40-μl” for “a 40 μl”, “ATP, 2.5” for “ATP, 2”, “nM CKI ε” for “nM CKIδ”, “of CKI ε” for “of CKIδ”, “for 70” for “for 85”

T1 sequence (P48730 whole entry): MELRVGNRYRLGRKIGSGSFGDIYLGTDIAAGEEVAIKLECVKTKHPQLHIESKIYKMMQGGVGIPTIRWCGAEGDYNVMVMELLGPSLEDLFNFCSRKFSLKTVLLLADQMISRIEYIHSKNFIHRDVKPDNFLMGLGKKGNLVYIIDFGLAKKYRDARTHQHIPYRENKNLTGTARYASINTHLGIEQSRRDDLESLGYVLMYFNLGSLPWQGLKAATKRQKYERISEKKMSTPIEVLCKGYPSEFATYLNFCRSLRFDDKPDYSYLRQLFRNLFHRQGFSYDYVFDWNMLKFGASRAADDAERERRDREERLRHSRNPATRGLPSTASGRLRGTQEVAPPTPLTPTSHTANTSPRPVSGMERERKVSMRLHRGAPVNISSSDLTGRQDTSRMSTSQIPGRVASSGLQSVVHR
CKIδ wild type, sequence (P48730 whole entry): as above
CKI ε wild type, sequence (P49674 whole entry): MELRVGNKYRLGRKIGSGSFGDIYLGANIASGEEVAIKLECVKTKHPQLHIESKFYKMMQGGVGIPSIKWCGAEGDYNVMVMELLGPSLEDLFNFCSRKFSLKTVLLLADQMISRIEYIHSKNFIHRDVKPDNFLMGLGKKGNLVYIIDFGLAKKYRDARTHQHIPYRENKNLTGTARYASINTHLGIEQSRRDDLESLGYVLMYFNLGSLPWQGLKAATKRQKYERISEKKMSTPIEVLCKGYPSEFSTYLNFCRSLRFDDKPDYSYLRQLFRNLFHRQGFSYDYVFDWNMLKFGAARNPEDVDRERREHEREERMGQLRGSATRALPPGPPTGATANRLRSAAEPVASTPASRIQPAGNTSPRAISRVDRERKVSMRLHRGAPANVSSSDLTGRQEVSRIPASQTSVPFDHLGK

Cn1cc(-c2ccnc3c2C(=O)N(Cc2ccccc2)C3)c(-c2ccc(F)cc2)n1 [Example 5, 6-benzyl-4-[3-(4-fluorophenyl)-1-methyl-1H-pyrazol-4-yl]-6,7-dihydro-5H-pyrrolo[3,4-b]pyridin-5-one]
IC50 (CKIδ wild type): 6.05 nM
EC50 [1]: 16.4 nM
IC50 (CKI ε wild type): 39 nM

Cn1cc(-c2ccnc3c2CN(Cc2ccccc2)C3)c(-c2ccc(F)cc2)n1 [Example 6, 6-benzyl-4-[3-(4-fluorophenyl)-1-methyl-1H-pyrazol-4-yl]-6,7-dihydro-5H-pyrrolo[3,4-b]pyridine]
IC50 (CKIδ wild type): 61 nM
EC50 [1]: 204 nM
IC50 (CKI ε wild type): 292 nM

Cn1cc(-c2ccnc3c2CCC3)c(-c2ccc(F)cc2)n1 [Example 23, 4-[3-(4-fluorophenyl)-1-methyl-1H-pyrazol-4-yl]-6,7-dihydro-5H-cyclopenta[b]pyridine]
IC50 (CKIδ wild type): 25.4 nM
EC50 [1]: 214 nM
IC50 (CKI ε wild type): 157 nM

Cn1cc(-c2ccnc3c2CCC3O)c(-c2ccc(F)cc2)n1 (stereo not drawn) [Example 24, 4-[3-(4-fluorophenyl)-1-methyl-1H-pyrazol-4-yl]-6,7-dihydro-5H-cyclopenta[b]pyridin-7-ol]
IC50 (CKIδ wild type): 28.5 nM
EC50 [1]: 266 nM
IC50 (CKI ε wild type): 149 nM

CNC1CCc2c(-c3cn(C)nc3-c3ccc(F)cc3)ccnc21 (stereo not drawn) [Example 25, 4-[3-(4-fluorophenyl)-1-methyl-1H-pyrazol-4-yl]-N-methyl-6,7-dihydro-5H-cyclopenta[b]pyridin-7-amine]
IC50 (CKIδ wild type): 17.4 nM
EC50 [1]: 59.8 nM
IC50 (CKI ε wild type): 83.7 nM

Cn1cc(CN2Cc3nccc(-c4cn(C)nc4-c4ccc(F)cc4)c3C2=O)cn1 [Example 26, 4-[3-(4-fluorophenyl)-1-methyl-1H-pyrazol-4-yl]-6-[(1-methyl-1H-pyrazol-4-yl)methyl]-6,7-dihydro-5H-pyrrolo[3,4-b]pyridin-5-one]
IC50 (CKIδ wild type): 22.6 nM
EC50 [1]: 125 nM
IC50 (CKI ε wild type): 123 nM

Cn1cc(-c2ccnc3c2C(=O)N(CC2CCOC2)C3)c(-c2ccc(F)cc2)n1 (stereo not drawn) [Example 27, 4-[3-(4-fluorophenyl)-1-methyl-1H-pyrazol-4-yl]-6-(tetrahydrofuran-3-ylmethyl)-6,7-dihydro-5H-pyrrolo[3,4-b]pyridin-5-one]
IC50 (CKIδ wild type): 35.3 nM
EC50 [1]: 369 nM
IC50 (CKI ε wild type): 210 nM

Cc1cc(CN2Cc3nccc(-c4cn(C)nc4-c4ccc(F)cc4)c3C2=O)nn1C [Example 28, 6-[(1,5-dimethyl-1H-pyrazol-3-yl)methyl]-4-[3-(4-fluorophenyl)-1-methyl-1H-pyrazol-4-yl]-6,7-dihydro-5H-pyrrolo[3,4-b]pyridin-5-one]
IC50 (CKIδ wild type): 15.7 nM
EC50 [1]: 66.4 nM
IC50 (CKI ε wild type): 86.4 nM

COCCCN1Cc2nccc(-c3cn(C)nc3-c3ccc(F)cc3)c2C1=O [Example 29, 4-[3-(4-fluorophenyl)-1-methyl-1H-pyrazol-4-yl]-6-(3-methoxypropyl)-6,7-dihydro-5H-pyrrolo[3,4-b]pyridin-5-one]
IC50 (CKIδ wild type): 26.2 nM
EC50 [1]: 217 nM
IC50 (CKI ε wild type): 131 nM

Cn1cc(-c2ccnc3c2C(=O)N(CCOC(C)(C)C)C3)c(-c2ccc(F)cc2)n1 [Example 30, 6-(2-tert-butoxyethyl)-4-[3-(4-fluorophenyl)-1-methyl-1H-pyrazol-4-yl]-6,7-dihydro-5H-pyrrolo[3,4-b]pyridin-5-one]
IC50 (CKIδ wild type): 27.7 nM
EC50 [1]: 159 nM
IC50 (CKI ε wild type): 149 nM

COC(=O)C1(N2Cc3nccc(-c4cn(C)nc4-c4ccc(F)cc4)c3C2=O)CC1 [Example 31, methyl 1-{4-[3-(4-fluorophenyl)-1-methyl-1H-pyrazol-4-yl]-5-oxo-5,7-dihydro-6H-pyrrolo[3,4-b]pyridin-6-yl}cyclopropanecarboxylate]
IC50 (CKIδ wild type): 48.1 nM
EC50 [1]: 304 nM
IC50 (CKI ε wild type): 187 nM

Cn1cc(-c2ccnc3c2C(=O)N(C2CCCC2)C3)c(-c2ccc(F)cc2)n1 [Example 32, 6-cyclopentyl-4-[3-(4-fluorophenyl)-1-methyl-1H-pyrazol-4-yl]-6,7-dihydro-5H-pyrrolo[3,4-b]pyridin-5-one]
IC50 (CKIδ wild type): 8.93 nM
EC50 [1]: 84.9 nM
IC50 (CKI ε wild type): 40.8 nM

Cn1cc(CCN2Cc3nccc(-c4cn(C)nc4-c4ccc(F)cc4)c3C2=O)cn1 [Example 33, 4-[3-(4-fluorophenyl)-1-methyl-1H-pyrazol-4-yl]-6-[2-(1-methyl-1H-pyrazol-4-yl)ethyl]-6,7-dihydro-5H-pyrrolo[3,4-b]pyridin-5-one]
IC50 (CKIδ wild type): > 75.5 nM
EC50 [1]: 232 nM
IC50 (CKI ε wild type): > 230 nM

Cc1c(CN2Cc3nccc(-c4cn(C)nc4-c4ccc(F)cc4)c3C2=O)cnn1C [Example 35, 6-[(1,5-dimethyl-1H-pyrazol-4-yl)methyl]-4-[3-(4-fluorophenyl)-1-methyl-1H-pyrazol-4-yl]-6,7-dihydro-5H-pyrrolo[3,4-b]pyridin-5-one]
IC50 (CKIδ wild type): 23.3 nM
EC50 [1]: 104 nM
IC50 (CKI ε wild type): 130 nM

Cn1cc(-c2ccnc3c2C(=O)N(C2CCOCC2)C3)c(-c2ccc(F)cc2)n1 [Example 36, 4-[3-(4-fluorophenyl)-1-methyl-1H-pyrazol-4-yl]-6-(tetrahydro-2H-pyran-4-yl)-6,7-dihydro-5H-pyrrolo[3,4-b]pyridin-5-one]
IC50 (CKIδ wild type): > 195 nM
EC50 [1]: 224 nM
IC50 (CKI ε wild type): > 516 nM

Cn1cc(-c2ccnc3c2C(=O)N(CC2CC2)C3)c(-c2ccc(F)cc2)n1 [Example 37, 6-(cyclopropylmethyl)-4-[3-(4-fluorophenyl)-1-methyl-1H-pyrazol-4-yl]-6,7-dihydro-5H-pyrrolo[3,4-b]pyridin-5-one]
IC50 (CKIδ wild type): 12.9 nM
EC50 [1]: 74.1 nM
IC50 (CKI ε wild type): 82.5 nM

Cc1noc(CCN2Cc3nccc(-c4cn(C)nc4-c4ccc(F)cc4)c3C2=O)n1 [Example 38, 4-[3-(4-fluorophenyl)-1-methyl-1H-pyrazol-4-yl]-6-[2-(3-methyl-1,2,4-oxadiazol-5-yl)ethyl]-6,7-dihydro-5H-pyrrolo[3,4-b]pyridin-5-one]
IC50 (CKIδ wild type): 18.6 nM
EC50 [1]: 71.4 nM
IC50 (CKI ε wild type): 92 nM

CC(C)CN1Cc2nccc(-c3cn(C)nc3-c3ccc(F)cc3)c2C1=O [Example 39, 4-[3-(4-fluorophenyl)-1-methyl-1H-pyrazol-4-yl]-6-isobutyl-6,7-dihydro-5H-pyrrolo[3,4-b]pyridin-5-one]
IC50 (CKIδ wild type): 49.5 nM
EC50 [1]: 188 nM
IC50 (CKI ε wild type): 241 nM

Cn1cc(-c2ccnc3c2C(=O)N(CCC#N)C3)c(-c2ccc(F)cc2)n1 [Example 40, 3-{4-[3-(4-fluorophenyl)-1-methyl-1H-pyrazol-4-yl]-5-oxo-5,7-dihydro-6H-pyrrolo[3,4-b]pyridin-6-yl}propanenitrile]
IC50 (CKIδ wild type): 11.1 nM
EC50 [1]: 53.7 nM
IC50 (CKI ε wild type): 47.1 nM

Cn1cc(-c2ccnc3c2C(=O)N(Cc2cccc(C#N)c2)C3)c(-c2ccc(F)cc2)n1 [Example 41, 3-({4-[3-(4-fluorophenyl)-1-methyl-1H-pyrazol-4-yl]-5-oxo-5,7-dihydro-6H-pyrrolo[3,4-b]pyridin-6-yl}methyl)benzonitrile]
IC50 (CKIδ wild type): 20.5 nM
EC50 [1]: 65.5 nM
IC50 (CKI ε wild type): 108 nM

COCCN1Cc2nccc(-c3cn(C)nc3-c3ccc(F)cc3)c2C1=O [Example 42, 4-[3-(4-fluorophenyl)-1-methyl-1H-pyrazol-4-yl]-6-(2-methoxyethyl)-6,7-dihydro-5H-pyrrolo[3,4-b]pyridin-5-one]
IC50 (CKIδ wild type): 67.3 nM
EC50 [1]: 623 nM
IC50 (CKI ε wild type): 386 nM
